Experimental findings from patent US10626107B2, “Crystal form, salt type of substituted 2-hydro-pyrazole derivative and preparation method therefor” (CHIA TAI TIANQING PHARMACEUTICAL GROUP CO., LTD., priority 2016, dated 2020) are described below.

The target of assay [1] is CDK6/cyclin D1 (Homo sapiens (Human), UniProt Q00534). Description: CDK6/cyclin D1 enzymatic activity (Lance Ultra). The conditions noted are these: 180 minutes. The assay is classed as biochemical. As to the method: The components of the buffer included 50 mM hydroxyethylpiperazine ethanesulfonic acid solution (pH 7.5), 1 mM ethylenediaminetetraacetic acid, 10 mM magnesium chloride, 0.01% Brij-35, and 2 mM dithiothreitol.
Chain of CDK6/cyclin D1 (Q00534 whole entry): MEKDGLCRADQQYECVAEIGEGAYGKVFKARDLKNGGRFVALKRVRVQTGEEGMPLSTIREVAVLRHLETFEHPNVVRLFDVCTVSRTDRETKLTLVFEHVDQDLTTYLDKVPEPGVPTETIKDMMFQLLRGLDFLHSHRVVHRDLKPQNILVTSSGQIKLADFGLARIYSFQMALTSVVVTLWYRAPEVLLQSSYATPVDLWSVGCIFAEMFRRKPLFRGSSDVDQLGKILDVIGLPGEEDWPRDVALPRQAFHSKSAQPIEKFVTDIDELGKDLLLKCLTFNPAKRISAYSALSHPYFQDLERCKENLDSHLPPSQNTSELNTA
Chain of CDK6/cyclin D1 (P24385 whole entry partner): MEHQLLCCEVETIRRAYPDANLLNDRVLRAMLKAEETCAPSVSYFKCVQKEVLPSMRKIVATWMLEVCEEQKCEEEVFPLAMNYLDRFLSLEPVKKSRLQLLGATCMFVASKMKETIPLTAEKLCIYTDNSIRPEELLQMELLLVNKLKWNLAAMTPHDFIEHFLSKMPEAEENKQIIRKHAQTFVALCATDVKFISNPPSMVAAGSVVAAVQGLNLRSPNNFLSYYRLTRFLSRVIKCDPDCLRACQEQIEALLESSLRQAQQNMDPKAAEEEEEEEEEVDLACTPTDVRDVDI

Assay [2] relates to human lung cancer LU-01-0393 subcutaneous xenograft tumor. Description: In vivo drug efficacy study (II): human lung cancer LU-01-0393 subcutaneous xenograft tumor model. Also noted: species or system BALB/c nude mice. The conditions noted are these: 45 mg/kg PO QD × 3W. The source says: Cell line-derived xenograft (CDX) BALB/c nude mice that were female, 6- to 8-week old, weighed 17 to 20 g, and subcutaneously implanted with human tumor cell line derived from LU-01-0393 lung cancer patient were used. A total of 72 mice were needed and were purchased from Shanghai Xipuer-Bikai Experimental Animal Co., Ltd. Human lung cancer LU-01-0393 tumor (i.e., non-small cell lung cancer) was originally derived from a clinical sample of a surgical resection. It was defined as passage PO after being inoculated to nude mice, and the tumor of passage PO was re-inoculated to nude mice and was then defined as passage P1, and so forth. Passage was performed in nude mice. LU-01-0393-FP5 was obtained from the transplantation after the recovery of P4. This study would use the tumor tissue of passage FP6.
BALB/c nude mice that were female, 6- to 8-week old, and weighed approximately 17 to 20 g were used. The mice were maintained in separate ventilated cages in a special pathogen-free environment. All the cages, bedding and water were disinfected prior to use. All the animals were free to access a standard certified commercial laboratory diet. A total of 72 mice purchased from Shanghai Xipuer-Bikai Experimental Animal Co., Ltd. were used for the study. The LU-01-0393 FP6 tumor tissue was cut to 20 to 30 mm^3 and inoculated to the right back of each mouse to wait for the tumor growth. When the average tumor volume reached about 171 mm^3, the mice were randomized into groups and administered. The test compounds were orally administered daily, and the administration dosages were as shown in the above table. The tumor diameters were measured twice a week using a two-dimensional caliper. The tumor volumes were calculated by the following formula: V=0.5 a×b^2, wherein a and b were the long diameter and the short diameter of a tumor, respectively. The anti-tumor efficacy was determined by dividing the average increase of the tumor volumes of the animals treated with a compound by the average increase of the tumor volumes of the animals without being treated with the compound.
(In general: A xenograft is tissue or cells of one species grown in another, often human tumour cells in immunodeficient mice.)

Turning to `CC(C)c1c2cc(-c3nc(Nc4ccc(N5CCNCC5)cn4)ncc3F)ccc2nn1C.O=C(O)/C=C\C(=O)O` [A crystal form of compound WX_1], the 50% inhibitory concentration (IC50) in assay [1] was < 0.8 nM. Besides, the “Tumor volume Day 0” value in assay [2] (Day 0) came out at 171 ± 26 mm^3. In assay [2] (Day 7), the “Tumor volume Day 7” value came to 172 ± 33 mm^3. In addition, the “Tumor volume Day 14” value in assay [2] (Day 14) stood at 150 ± 29 mm^3. Besides, the “Tumor volume Day 21” value in assay [2] (Day 21) worked out at 175 ± 42 mm^3.

By IC50 is commonly meant the midpoint of a concentration-inhibition curve. Read a high IC50 as weaker potency.
